Values of other authors as cited in paper PMC8244136, “Integrin αvβ6-targeted MR molecular imaging of breast cancer in a xenograft mouse model” (Cancer Imaging, 2021).

How the values were obtained:
[1] = system: αvβ5; conditions: selectivity against other integrins
Description: (§1) Because of the significance of integrin αvβ6 in tumorigenesis and tumor progression, many pioneering experimental studies have focused on αvβ6-targeted ligands, including peptides and non-peptide inhibitors. More recently, a novel sub-nanomolar αvβ6-specific ligand, the nonapeptide cyclo [FRGDLAFp(NMe)K] (referred to as cFK-9) was identified, which is characterized by the RXDLXXL motif sequence.

[2] = system: integrin αvβ6; conditions: read-out: αvβ6 binding affinity IC50
Description: as §1

[3] = system: αvβ3; conditions: selectivity against other integrins
Description: as §1

[4] = system: αIIbβ3; conditions: selectivity against other integrins
Description: as §1

[5] = Description: as §1
[6] = system: α5β1; conditions: selectivity against other integrins
Description: as §1

In the case of “cyclo [FRGDLAFp(NMe)K] (head to tail) [cFK-9, sub-nanomolar αvβ6-specific ligand, cyclic RGD nonapeptide with RXDLXXL motif]”, the IC50 [1] is listed as greater than 1000 nM, the IC50 [2] is listed as 0.26 nM and the IC50 [3] is listed as 632 nM. For the same substance, the IC50 [4] was greater than 1000 nM, the “stability in human plasma” value [5] was “very stable” and the IC50 [6] was 73 nM.
